In patent US20250122219A1 (priority 2023, published 2025):
pEC50: −log10 of the molar value.

Assays:
HIV-1 (IIIB) = test: Antiviral assay in MT-4 cells; format: cell-based; details: Human immunodeficiency virus 1, MT4, 120 h; HIV-1 IIIB in MT-4 cells, 5 days incubation, Cell Titer Glo; read-out: MT4 EC50
Method: (§1) Compounds were tested in a high-throughput 384-well assay format for their ability to inhibit the replication of HIV-1 (IIIB) in MT-4 cells. Compounds were serially diluted (1.3) in DMSO on 384-well polypropylene plates and further diluted 200-fold into complete RPMI media (10% FBS, 1% P/S) using the Biotek Micro Flow and Labcyte ECHO acoustic dispenser. Each plate contained up to 8 test compounds, with negative (No Drug Control) and 5 μM AZT positive controls. MT-4 cells were pre-infected with 10 μL of either RPMI (mock-infected) or a fresh 1:250 dilution of HIV-1 IIIB concentrated virus stock. Infected and uninfected MT-4 cells were further diluted in complete RPMI media and added to each plate using a Micro Flow dispenser. After 5 days incubation in a humidified and temperature controlled incubator (37° C.), Cell Titer Glo (Promega) was added to the assay plates and chemiluminescence read using an Envision plate-reader.

[1] = Cytotoxicity assay in MT-4 cells; format: cell-based; details: human; uninfected MT-4 cells, 5 days incubation, Cell Titer Glo; read-out: MT4 CC50
Method: as §1
Assays were performed as above except uninfected MT-4 cells were added to each well containing test compound. In addition, […] puromycin was added to the last column of each assay plate to assess a base level of cytotoxicity.

Row | SMILES | pEC50 (HIV-1 (IIIB)) | CC50 at 5 days [1] [µM]
1 | COC1=NO[C@@]2(CC[C@H](C)N3C[C@H]2n2cc(C(=O)NCc4ccc(F)cc4F)c(=O)c(OCOC(C)=O)c2C3=O)C1 [Example 83, (((3′S,5S,7′R)-10′-((2,4-difluorobenzyl)carbamoyl)-3-methoxy-3′-methyl-1′,11′-dioxo-1′,4′,5′,11′-tetrahydro-3′H,4H,7′H-spiro[isoxazole-5,6′-[2,7]methanopyrido[1,2-a][1,4]diazonin]-12′-yl)oxy)methyl acetate] | 8.57 | 16
2 | CC1=NO[C@@]2(CC[C@H](C)N3C[C@H]2n2cc(C(=O)NCc4ccc(F)cc4F)c(=O)c(OC(=O)CC(C)C)c2C3=O)C1 [Example 55, (3′S,5S,7′R)-10′-((2,4-difluorobenzyl)carbamoyl)-3,3′-dimethyl-1′,11′-dioxo-1′,4′,5′,11′-tetrahydro-3′H,4H,7′H-spiro[isoxazole-5,6′-[2,7]methanopyrido[1,2-a][1,4]diazonin]-12′-yl 3-methylbutanoate] | 9.50 | 16.4
3 | CCC(=O)OCOc1c2n(cc(C(=O)NCc3ccc(F)cc3F)c1=O)[C@@H]1CN(C2=O)[C@@H](C)CC[C@]12CC(OC)=NO2 [Example 85, (((3′S,5S,7′R)-10′-((2,4-difluorobenzyl)carbamoyl)-3-methoxy-3′-methyl-1′,11′-dioxo-1′,4′,5′,11′-tetrahydro-3′H,4H,7′H-spiro[isoxazole-5,6′-[2,7]methanopyrido[1,2-a][1,4]diazonin]-12′-yl)oxy)methyl propionate] | 8.65 | 28.4
4 | CCCC(=O)OCOc1c2n(cc(C(=O)NCc3ccc(F)cc3F)c1=O)[C@@H]1CN(C2=O)[C@@H](C)CC[C@]12CC(OC)=NO2 [Example 87, (((3′S,5S,7′R)-10′-((2,4-difluorobenzyl)carbamoyl)-3-methoxy-3′-methyl-1′,11′-dioxo-1′,4′,5′,11′-tetrahydro-3′H,4H,7′H-spiro[isoxazole-5,6′-[2,7]methanopyrido[1,2-a][1,4]diazonin]-12′-yl)oxy)methyl butyrate] | 8.74 | 16.4
5 | COC1=NO[C@@]2(CC[C@H](C)N3C[C@H]2n2cc(C(=O)NCc4ccc(F)cc4F)c(=O)c(OC(=O)CCC4CCCC4)c2C3=O)C1 [Example 58, (3′S,5S,7′R)-10′-((2,4-difluorobenzyl)carbamoyl)-3-methoxy-3′-methyl-1′,11′-dioxo-1′,4′,5′,11′-tetrahydro-3′H,4H,7′H-spiro[isoxazole-5,6′-[2,7]methanopyrido[1,2-a][1,4]diazonin]-12′-yl 3-cyclopentylpropanoate] | 9.55 | 23.9
6 | CCCCCCCCCCCCCCOC(=O)OCOc1c2n(cc(C(=O)NCc3ccc(F)cc3F)c1=O)[C@@H]1CN(C2=O)[C@@H](C)CC[C@]12CC(C)=NO2 [Example 192, (((3′S,5S,7′R)-10′-((2,4-difluorobenzyl)carbamoyl)-3,3′-dimethyl-1′,11′-dioxo-1′,4′,5′,11′-tetrahydro-3′H,4H,7′H-spiro[isoxazole-5,6′-[2,7]methanopyrido[1,2-a][1,4]diazonin]-12′-yl)oxy)methyl tetradecyl carbonate] |  | ≥ 50
7 | COC(=O)N[C@@H](C)C(=O)Oc1c2n(cc(C(=O)NCc3ccc(F)cc3F)c1=O)[C@@H]1CN(C2=O)[C@@H](C)CC[C@]12CC(OC)=NO2 [Example 78] |  | 16.2
8 | COC1=NO[C@@]2(CC[C@H](C)N3C[C@H]2n2cc(C(=O)NCc4ccc(F)cc4F)c(=O)c(OCOC(=O)C(C)C)c2C3=O)C1 [Example 108, (((3′S,5S,7′R)-10′-((2,4-difluorobenzyl)carbamoyl)-3-methoxy-3′-methyl-1′,11′-dioxo-1′,4′,5′,11′-tetrahydro-3′H,4H,7′H-spiro[isoxazole-5,6′-[2,7]methanopyrido[1,2-a][1,4]diazonin]-12′-yl)oxy)methyl isobutyrate] |  | 21.7
9 | COC(=O)N[C@@H](C)C(=O)Oc1c2n(cc(C(=O)NCc3ccc(F)cc3F)c1=O)[C@@H]1CN(C2=O)[C@@H](C)CC[C@]12CC(C)=NO2 [Example 79] |  | 19.5
10 | CC1=NO[C@@]2(CC[C@H](C)N3C[C@H]2n2cc(C(=O)NCc4ccc(F)cc4F)c(=O)c(OCOC(=O)C(C)C)c2C3=O)C1 [Example 109, (((3′S,5S,7′R)-10′-((2,4-difluorobenzyl)carbamoyl)-3,3′-dimethyl-1′,11′-dioxo-1′,4′,5′,11′-tetrahydro-3′H,4H,7′H-spiro[isoxazole-5,6′-[2,7]methanopyrido[1,2-a][1,4]diazonin]-12′-yl)oxy)methyl isobutyrate] |  | 15.5
11 | COC1=NO[C@@]2(CC[C@H](C)N3C[C@H]2n2cc(C(=O)NCc4ccc(F)cc4F)c(=O)c(OC(=O)C(C)C)c2C3=O)C1 [Example 48, (3′S,5S,7′R)-10′-((2,4-difluorobenzyl)carbamoyl)-3-methoxy-3′-methyl-1′,11′-dioxo-1′,4′,5′,11′-tetrahydro-3′H,4H,7′H-spiro[isoxazole-5,6′-[2,7]methanopyrido[1,2-a][1,4]diazonin]-12′-yl isobutyrate] |  | 22.4

Now from value to compound, other results behind:

Row | pEC50 (HIV-1 (IIIB)) | SMILES | CC50 at 5 days [1] [µM]
12 | 8.93 | COC(=O)Oc1c2n(cc(C(=O)NCc3ccc(F)cc3F)c1=O)[C@@H]1CN(C2=O)[C@@H](C)CC[C@]12CC(C)=NO2 [Example 121, (3′S,5S,7′R)-10′-((2,4-difluorobenzyl)carbamoyl)-3,3′-dimethyl-1′,11′-dioxo-1′,4′,5′,11′-tetrahydro-3′H,4H,7′H-spiro[isoxazole-5,6′-[2,7]methanopyrido[1,2-a][1,4]diazonin]-12′-yl methyl carbonate] | 18.9
13 | 9.33 | CCCCCCCCCC(=O)OCOc1c2n(cc(C(=O)NCc3ccc(F)cc3F)c1=O)[C@@H]1CN(C2=O)[C@@H](C)CC[C@]12CC(OC)=NO2 [Example 99, (((3′S,5S,7′R)-10′-((2,4-difluorobenzyl)carbamoyl)-3-methoxy-3′-methyl-1′,11′-dioxo-1′,4′,5′,11′-tetrahydro-3′H,4H,7′H-spiro[isoxazole-5,6′-[2,7]methanopyrido[1,2-a][1,4]diazonin]-12′-yl)oxy)methyl decanoate] | ≥ 50
14 | 8.08 | COC[C@@H](C)OC(=O)OCOc1c2n(cc(C(=O)NCc3ccc(F)cc3F)c1=O)[C@@H]1CN(C2=O)[C@@H](C)CC[C@]12CC(C)=NO2 [Example 213, (((3′S,5S,7′R)-10′-((2,4-difluorobenzyl)carbamoyl)-3,3′-dimethyl-1′,11′-dioxo-1′,4′,5′,11′-tetrahydro-3′H,4H,7′H-spiro[isoxazole-5,6′-[2,7]methanopyrido[1,2-a][1,4]diazonin]-12′-yl)oxy)methyl ((R)-1-methoxypropan-2-yl) carbonate] | ≥ 50
15 | 8.30 | CCCCCCCCCCCC(=O)OCOc1c2n(cc(C(=O)NCc3ccc(F)cc3F)c1=O)[C@@H]1CN(C2=O)[C@@H](C)CC[C@]12CC(C)=NO2 [Example 102, (((3′S,5S,7′R)-10′-((2,4-difluorobenzyl)carbamoyl)-3,3′-dimethyl-1′,11′-dioxo-1′,4′,5′,11′-tetrahydro-3′H,4H,7′H-spiro[isoxazole-5,6′-[2,7]methanopyrido[1,2-a][1,4]diazonin]-12′-yl)oxy)methyl dodecanoate] | ≥ 50
16 | 8.35 | CC1=NO[C@@]2(CC[C@H](C)N3C[C@H]2n2cc(C(=O)NCc4ccc(F)cc4F)c(=O)c(OCOC(=O)OCCC(C)C)c2C3=O)C1 [Example 201, (((3′S,5S,7′R)-10′-((2,4-difluorobenzyl)carbamoyl)-3,3′-dimethyl-1′,11′-dioxo-1′,4′,5′,11′-tetrahydro-3′H,4H,7′H-spiro[isoxazole-5,6′-[2,7]methanopyrido[1,2-a][1,4]diazonin]-12′-yl)oxy)methyl isopentyl carbonate] | 16.9
17 | 8.68 | COCCOCCOCCOCCOCCOCCOCCOC(=O)Oc1c2n(cc(C(=O)NCc3ccc(F)cc3F)c1=O)[C@@H]1CN(C2=O)[C@@H](C)CC[C@]12CC(OC)=NO2 [Example 163, (3′S,5S,7′R)-10′-((2,4-difluorobenzyl)carbamoyl)-3-methoxy-3′-methyl-1′,11′-dioxo-1′,4′,5′,11′-tetrahydro-3′H,4H,7′H-spiro[isoxazole-5,6′-[2,7]methanopyrido[1,2-a][1,4]diazonin]-12′-yl (2,5,8,11,14,17,20-heptaoxadocosan-22-yl) carbonate] | 37.6
18 | 8.71 | CC1=NO[C@@]2(CC[C@H](C)N3C[C@H]2n2cc(C(=O)NCc4ccc(F)cc4F)c(=O)c(OCOC(=O)CC(C)C)c2C3=O)C1 [Example 111, (((3′S,5S,7′R)-10′-((2,4-difluorobenzyl)carbamoyl)-3,3′-dimethyl-1′,11′-dioxo-1′,4′,5′,11′-tetrahydro-3′H,4H,7′H-spiro[isoxazole-5,6′-[2,7]methanopyrido[1,2-a][1,4]diazonin]-12′-yl)oxy)methyl 3-methylbutanoate] | 13.8
